The term Ki denotes the equilibrium dissociation constant of an inhibitor or competing ligand from its target. A low value points to a stronger hold on the target.

The target of one test is Carbonic anhydrase 9 (Homo sapiens, UniProt Q16790).
The target of a further test is Carbonic anhydrase 1 (Homo sapiens, UniProt P00915).
Sequence of Carbonic anhydrase 1 (P00915 whole entry): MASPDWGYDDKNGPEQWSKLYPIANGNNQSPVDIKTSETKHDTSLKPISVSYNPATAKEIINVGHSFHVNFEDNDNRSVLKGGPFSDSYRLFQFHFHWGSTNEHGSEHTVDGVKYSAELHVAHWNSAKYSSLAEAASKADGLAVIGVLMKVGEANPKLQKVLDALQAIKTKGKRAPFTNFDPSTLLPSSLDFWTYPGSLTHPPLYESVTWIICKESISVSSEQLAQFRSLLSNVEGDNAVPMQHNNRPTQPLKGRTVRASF

As for `Cc1cc[n+](-c2ccncc2S(N)(=O)=O)cc1`, at Carbonic anhydrase 9, the Ki came to 10.1 nM.

Regarding `COC1=C(S(N)(=O)=O)C2NS(=O)(=O)c3cnccc3N2C=C1` (centres undefined), the Ki on Carbonic anhydrase 9 was determined as 13.5 nM. The Ki values of the last two compounds are within 1.5-fold of each other.

`NS(=O)(=O)c1cnccc1-[n+]1ccccc1`: the Ki on Carbonic anhydrase 9 is 7.6 nM.

With `NS(=O)(=O)c1cnccc1Oc1ccncc1S(N)(=O)=O`, the Ki came out at 9 nM on Carbonic anhydrase 9 and 251000 nM at Carbonic anhydrase 1.

On Carbonic anhydrase 9, `CN(C)c1cc[n+](-c2ccncc2S(N)(=O)=O)cc1` came in with a Ki of 9 nM.

Turning to `COC1=CC=CC2N1c1ccncc1S(=O)(=O)N2c1ccncc1S(N)(=O)=O` (centres undefined), the Ki at Carbonic anhydrase 9 was found to be 8.7 nM.

As to `Cc1cccc[n+]1-c1ccncc1S(N)(=O)=O`, the affinity on Carbonic anhydrase 9 corresponds to a Ki of 7.4 nM.

Turning to `NS(=O)(=O)c1cnccc1-n1ccccc1=O`, the affinity at Carbonic anhydrase 9, expressed as Ki, was 10.2 nM. This Ki and that of the compound before are within 1.5-fold of each other.

These data come from ChEMBL document CHEMBL1817544, “Carbonic anhydrase inhibitors. Synthesis, molecular structures, and inhibition of the human cytosolic isozymes I and II and transmembrane isozymes IX, XII (cancer-associated) and XIV with novel 3-pyridinesulfonamide derivatives” (Eur J Med Chem, 2011).
